Two compounds from patent US11440870B2, “Cannabidiolic acid esters compositions and uses thereof” (Yissum Research Development Company of the Hebrew …, priority 2017, dated 2022) can be followed below.

SMILES strings stand for the structures.

For the test, the system named is anxiety-like responding in rats. As to the kind of experiment: Light-dark box emergence test after foot shock stress (anxiety-like responding). Particulars: for Time spent in the light box after foot shock (FS) stress vs No FS: 0.01 μg·kg−1 i.p., 45 min before 5 min test, 24 h after FS. In kind it is in vivo, male Sprague-Dawley rats. From the text: Animal procedures complied with the Canadian Council on Animal Care, and the protocols were approved by the Institutional Animal Care Committee at University of Guelph. Animal studies are reported in compliance with the ARRIVE guidelines (Kilkenny et al., 2010; McGrath and Lilley, 2015). A total of 200 näive male Sprague-Dawley rats, obtained from Charles River Laboratories (St Constant, Quebec), were used for all in vivo studies. Rats were individually housed (for acute nausea studies) or pair-housed [for anticipatory nausea and light-dark emergence studies] in home cages made of opaque white plastic (48×26×20 cm), containing bed-o-cob bedding from Harlan Laboratories, Inc. (Mississauga, Ontario), a brown paper towel, and Crinkl'Nest™ from The Andersons, Inc. (Maumee, Ohio). Additionally, in the home cage, rats were provided with a soft white paper container that was 14 cm long and 12 cm in diameter. All rats were subjected to an ambient temperature of 21° C. and a 12/12 h light-dark schedule (lights off at 07:00 h) and maintained on food (Highland Rat Chow [8640]) and water ad libitum. For the acute and anticipatory nausea studies, their body weights ranged from 263 to 329 g on the day of conditioning. For the light-dark emergence studies, their body weights ranged from 320 to 387 g on the day of test.
For the in vivo experiment 3, anxiolytic-like responding was evaluated using the light-dark emergence apparatus, which consisted of an opaque white plastic rectangular box that was divided into two compartments: a small (25 cm wide×20.5 cm long×20.5 cm high) enclosed dark box built of opaque black plastic with a door (8 cm wide×10 cm high) leading to a larger (39.5 cm long×25 cm wide) open lit box. The open lit box was illuminated by one lamp (with a 60 W bulb, 180 lux in the light chamber) positioned 115 cm above the center of the lit box. A video camera was mounted over the top of the light-dark box, and the video tapes were analyzed by the Ethovision software (Noldus Information Technology, Leesburg, Va., USA) for the duration of time spent in the light box for the 5 min test. For the foot shock (FS) session, the rats were placed in sound attenuating MED Associates fear conditioning chambers (St. Albans, Vt., USA). The 6 min FS session consisted of six 0.8 mA foot shocks delivered 1 min apart. Each 0.5 s shock was preceded by a 30 s auditory tone (90 Db, 5000 Hz) as described by Bluett et al. (2014).
The effect of CBDA and HU-580 on anxiety-like responding was evaluated using the light-dark box emergence test following either foot shock stress or no foot shock (No FS) stress. […]

With `C=C(C)[C@@H]1CCC(C)=C[C@H]1c1c(O)cc(CCCCC)c(C(=O)O)c1O` [CBDA, Cannabidiolic acid], the “Time spent in the light box after foot shock (FS) stress vs No FS” value is “spent less time in the light box following FS stress than following No FS stress”.

As for `C=C(C)[C@@H]1CCC(C)=C[C@H]1c1c(O)cc(CCCCC)c(C(=O)OC)c1O` [HU-580, Cannabidiolic Acid Methyl Ester], the “Time spent in the light box after foot shock (FS) stress vs No FS” value is “reversed the effect of FS”. In addition, the “Time spent in the light box after foot shock (FS) stress vs No FS, with 5-HT1A antagonist pretreatment” value (WAY100635 15 min before 0.01 μg·kg−1 HU-580 i.p., P=0.05) was “spent less time in the light box following FS stress than following No FS stress”.
